Patent publication US7875587B2, “Peptide analogues of GIP for treatment of diabetes, insulin resistance and obesity” (UUTECH Limited, priority 2004, dated 2011)

Tested on: Wistar rats
Assay: In vivo plasma glucose and insulin after i.p. glucose with peptide in Wistar rats
Design: species or system rat
Conditions: 10 nmol/kg i.p. with glucose
Procedure: In vivo biological activity of GIP and Tyr^1-glucitol GIP. Effects of GIP and Tyr^1-glucitol GIP on plasma glucose and insulin concentrations were examined using 10-12 week old male Wistar rats. The animals were housed individually in an air conditioned room and 22±2° C. with a 12 hour light/12 hour dark cycle. Drinking water and a standard rodent maintenance diet (Trouw Nutrition, Belfast, Northern Ireland) were supplied ad libitum. Food was withdrawn for an 18 hour period prior to intraperitoneal injection of glucose alone (18 mmol/kq body weight) or in combination with either GIP or Tyr^1-glucitol GIP (10 nmol/kg). Test solutions were administered in a final volume of 8 ml/kg body weight. Blood samples were collected at 0, 15, 30 and 60 minutes from the cut tip of the tail of conscious rats into chilled fluoride/heparin microcentrifuge tubes (Sarstedt, Numbrecht, Germany). Samples were centrifuged using a Beckman microcentrifuge for about 30 seconds at 13,000 g. Plasma samples were aliquoted and stored at −20° C. prior to glucose and insulin determinations. All animal studies were done in accordance with the Animals (Scientific Procedures) Act 1986.
Analyses. Plasma glucose was assayed by an automated glucose oxidase procedure using a Beckman Glucose Analyzer II [33]. Plasma insulin was determined by dextran charcoal radioimmunoassay as described previously. Incremental areas under plasma glucose and insulin area under the curve (AUC) were calculated using a computer program (CAREA) employing the trapezoidal rule with baseline subtraction. Results are expressed as mean±SEM and values were compared using the Student's unpaired t-test.

## CC[C@H](C)[C@H](NC(=O)[C@H](CO)NC(=O)[C@H](Cc1ccc(O)cc1)NC(=O)[C@H](CC(=O)O)NC(=O)[C@H](CO)NC(=O)[C@@H](NC(=O)[C@H](Cc1ccccc1)NC(=O)[C@@H](NC(=O)CNC(=O)[C@H](CCC(=O)O)NC(=O)[C@H](C)NC(=O)[C@@H](N)Cc1ccc(O)cc1)[C@@H](C)O)[C@@H](C)CC)C(=O)N[C@@H](C)C(=O)N[C@@H](CCSC)C(=O)N[C@@H](CC(=O)O)C(=O)N[C@@H](CCCCN)C(=O)N[C@H](C(=O)N[C@@H](Cc1c[nH]cn1)C(=O)N[C@@H](CCC(N)=O)C(=O)N[C@@H](CCC(N)=O)C(=O)N[C@@H](CC(=O)O)C(=O)N[C@@H](Cc1ccccc1)C(=O)N[C@H](C(=O)N[C@@H](CC(N)=O)C(=O)N[C@@H](Cc1c[nH]c2ccccc12)C(=O)N[C@@H](CC(C)C)C(=O)N[C@@H](CC(C)C)C(=O)N[C@@H](C)C(=O)N[C@@H](CCC(N)=O)C(=O)N[C@@H](CCCCN)C(=O)NCC(=O)N[C@@H](CCCCN)C(=O)N[C@@H](CCCCN)C(=O)N[C@@H](CC(N)=O)C(=O)N[C@@H](CC(=O)O)C(=O)N[C@@H](Cc1c[nH]c2ccccc12)C(=O)N[C@@H](CCCCN)C(=O)N[C@@H](Cc1c[nH]cn1)C(=O)N[C@@H](CC(N)=O)C(=O)N[C@H](C(=O)N[C@H](C(=O)N[C@@H](CCC(N)=O)C(=O)O)[C@@H](C)O)[C@@H](C)CC)C(C)C)[C@@H](C)CC [GIP 1–42, reference compound]
  overall insulin response (AUC) compared with glucose alone: significantly greater
Vs glucose alone, 0-60 min
  plasma glucose concentrations and AUC compared with control group: significantly lower
